# Results reported in PubChem BioAssay (NCI).
#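 Growth conditions: 96-well plates. Treatment: test compound, 48 hours, 5 concentrations. Analysis: linear interpolation between bracketing concentrations; unreached endpoints set to highest concentration. Abbreviation: GI50, concentration required for 50% inhibition of growth. The concentration for full growth arrest is given as TGI.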
# Experiments:
# Test in all cases: growth of human tumour cells (NCI), 48 h
# COLO 205 colon = system: COLO 205 colon
# SF-268 CNS = system: SF-268 CNS
# RPMI-8226 leukemia = system: RPMI-8226 leukemia
# SNB-19 CNS = system: SNB-19 CNS
# NCI/ADR-RES ovarian = system: NCI/ADR-RES ovarian
# HL-60(TB) leukemia = system: HL-60(TB) leukemia
# MDA-MB-435 = system: MDA-MB-435
# UO-31 renal = system: UO-31 renal
# HCC-2998 colon = system: HCC-2998 colon
# MALME-3M melanoma = system: MALME-3M melanoma
SMILES,TGI (COLO 205 colon),TGI (SF-268 CNS),TGI (RPMI-8226 leukemia),TGI (SNB-19 CNS),TGI (NCI/ADR-RES ovarian),TGI (HL-60(TB) leukemia),TGI (MDA-MB-435),TGI (UO-31 renal),TGI (HCC-2998 colon),TGI (MALME-3M melanoma),GI50 (HL-60(TB) leukemia),GI50 (MALME-3M melanoma),GI50 (COLO 205 colon),GI50 (SF-268 CNS),GI50 (RPMI-8226 leukemia),GI50 (SNB-19 CNS),GI50 (NCI/ADR-RES ovarian),GI50 (MDA-MB-435),GI50 (UO-31 renal),GI50 (HCC-2998 colon)
COc1ccc(-c2nc3ncccn3c2-c2ccc(SC)cc2)cc1,3.31 µM,3.15 µM,29.2 µM,5.94 µM,5.24 µM,6.61 µM,0.499 µM,66.6 µM,–,–,–,–,–,–,–,–,–,–,–,–
COc1ccc2c(C(=O)c3cn(CCN4CCOCC4)c4ccccc34)cccc2c1,> 92 µM,> 100 µM,> 100 µM,> 100 µM,> 100 µM,54.3 µM,> 100 µM,> 100 µM,> 100 µM,> 75.7 µM,–,–,–,–,–,–,–,–,–,–
O=C(O)CCSC(CC1(c2ccc(Cl)cc2)NC(=O)CCS1)c1ccccc1 (stereo not drawn),> 60.6 µM,38.4 µM,> 100 µM,> 56.1 µM,49.3 µM,> 100 µM,29.8 µM,> 54.8 µM,39.6 µM,41.6 µM,–,–,–,–,–,–,–,–,–,–
NCCc1cc(O)c(O)cc1O,> 72.9 µM,58.5 µM,39.3 µM,> 100 µM,> 86.7 µM,65.6 µM,32.7 µM,51.2 µM,> 100 µM,> 74.1 µM,12.8 µM,–,–,–,–,–,–,–,–,–
O=P1(c2ccccc2)Nc2ccccc2SSc2ccccc2N1,42.4 µM,34 µM,45.3 µM,30.3 µM,42.3 µM,39.6 µM,–,27.2 µM,37.6 µM,36.9 µM,–,–,–,–,–,–,–,–,–,–
CSc1ccsc1-c1sc(-c2cc(SC)c(-c3sc(-c4cc(SC)c(-c5sccc5SC)s4)cc3SC)s2)cc1SC,> 100 µM,> 100 µM,> 100 µM,> 100 µM,> 100 µM,8.9 µM,56.5 µM,–,> 100 µM,81.7 µM,–,–,–,–,–,–,–,–,–,–
CN(C)CCCn1cnc2cc(Cl)c(Cl)cc21,> 100 µM,> 100 µM,> 100 µM,> 100 µM,> 100 µM,> 100 µM,> 100 µM,> 100 µM,40.6 µM,> 100 µM,–,–,–,–,–,–,–,–,–,–
CCCOC(=O)CNC(=O)OC(C)(C)C,> 100 µM,> 100 µM,–,> 100 µM,–,> 100 µM,–,> 100 µM,> 100 µM,> 100 µM,–,–,–,–,–,–,–,–,–,–
COc1ccc(/C(Cl)=C(\C=O)c2ccc(OC)cc2)cc1,–,> 100 µM,> 100 µM,> 100 µM,–,80.9 µM,–,> 100 µM,> 100 µM,> 100 µM,–,–,–,–,–,–,–,–,–,–
N=C1C(=N)c2ccccc2-c2ccccc21.N=C1C(=N)c2ccccc2-c2ccccc21.N=C1C(=N)c2ccccc2-c2ccccc21.[Cl-].[Ru+2],6.87 µM,3.28 µM,5.4 µM,6.35 µM,–,3.76 µM,–,4.71 µM,> 31.6 µM,3.29 µM,–,1.79 µM,–,–,–,–,–,–,–,–
COC(C)(C)OCCN1CCN(CCN2C3=C(C=C(C(C)=O)C3)Sc3ccccc32)CC1,33.4 µM,43.2 µM,32.8 µM,93.3 µM,50.2 µM,35.8 µM,30.9 µM,43.1 µM,36.2 µM,36.6 µM,–,–,–,–,–,–,–,–,–,–
C=CCN(C(=O)CNC(=O)C(F)(F)F)c1cc(OCc2ccccc2)c2c(c1)c(C)cn2S(=O)(=O)c1ccccc1,> 100 µM,> 100 µM,> 100 µM,> 100 µM,> 100 µM,–,> 100 µM,15.6 µM,> 100 µM,> 100 µM,–,–,–,–,–,–,–,–,–,–
CC(=O)NNc1nc(-c2ccc([N+](=O)[O-])cc2)c(C#N)c(=O)n1C,> 100 µM,> 100 µM,> 100 µM,> 100 µM,> 100 µM,82.6 µM,> 100 µM,> 100 µM,–,> 100 µM,–,–,–,–,–,–,–,–,–,–
Cc1cc(/N=C/c2ccc(F)cc2)n(-c2ccccc2)n1,> 100 µM,> 100 µM,92.8 µM,> 100 µM,> 100 µM,> 100 µM,> 100 µM,> 100 µM,–,> 100 µM,–,–,–,–,–,–,–,–,–,–
NCCCn1c2c(c3ccc([N+](=O)[O-])cc3c1=O)C(=O)c1ccccc1-2,3.82 µM,> 12.2 µM,–,7.05 µM,2.41 µM,> 19.3 µM,2.08 µM,> 50 µM,–,–,0.031 µM,–,0.33 µM,0.24 µM,0.0284 µM,0.0721 µM,0.427 µM,0.322 µM,0.11 µM,–
COc1cc(C2CC(c3cccc(Nc4ccncc4)c3)=NN2c2ccc(Cl)cc2)cc(OC)c1OC (stereo not drawn),4.79 µM,3.06 µM,–,2.91 µM,–,–,3.08 µM,2.37 µM,2.91 µM,3.11 µM,–,1.66 µM,2.12 µM,1.58 µM,–,1.55 µM,–,1.62 µM,1.15 µM,1.54 µM

SMILES,TGI (COLO 205 colon),TGI (SF-268 CNS),TGI (RPMI-8226 leukemia),TGI (SNB-19 CNS),TGI (NCI/ADR-RES ovarian),TGI (HL-60(TB) leukemia),TGI (MDA-MB-435),TGI (UO-31 renal),TGI (HCC-2998 colon),TGI (MALME-3M melanoma),GI50 (HL-60(TB) leukemia),GI50 (MALME-3M melanoma),GI50 (COLO 205 colon),GI50 (SF-268 CNS),GI50 (RPMI-8226 leukemia),GI50 (SNB-19 CNS),GI50 (NCI/ADR-RES ovarian),GI50 (MDA-MB-435),GI50 (UO-31 renal),GI50 (HCC-2998 colon)
O=C(Nc1ccc([N+](=O)[O-])cc1[N+](=O)[O-])C(=O)C(C(=O)c1ccc2ccccc2c1)C1OC(=O)c2ccccc21 (stereo not drawn),35 µM,43.1 µM,68.6 µM,33 µM,–,35 µM,–,27.7 µM,25 µM,–,–,–,–,–,–,–,–,–,–,–
CN(C)CCNC(=O)c1cccc2ccc(-c3ccc(F)cc3)nc12,10.9 µM,22.2 µM,13.5 µM,33.7 µM,18.4 µM,7.49 µM,–,11.4 µM,19.3 µM,13.6 µM,–,–,–,–,–,–,–,–,–,–
Nc1n[nH]c(=O)c2c1c(I)cn2C1OC(CO)C(O)C1O (stereo not drawn),7.81 µM,25.7 µM,4.53 µM,> 100 µM,–,0.348 µM,–,5.86 µM,7.45 µM,17.3 µM,–,–,–,–,–,–,–,–,–,–
Oc1cn(-c2ccc(Cl)cc2)nc1-c1n[nH]c(=S)n1-c1ccccc1,54.9 µM,64.2 µM,> 100 µM,> 100 µM,14.1 µM,> 100 µM,5.09 µM,62.7 µM,–,62.9 µM,–,–,–,–,–,–,–,–,–,–
CC(C)(C)[Si](C)(C)Oc1ccc(C2CNC(=O)C23CCC(=O)N3Cc2ccccc2)cc1 (stereo not drawn),25.3 µM,26 µM,18.8 µM,29.5 µM,26.7 µM,49.2 µM,29.9 µM,32.9 µM,–,48.4 µM,–,–,–,–,–,–,–,–,–,–
Cc1cc2c(cc1C(=O)c1ccc(N)cc1)OCO2,41.5 µM,> 100 µM,> 100 µM,> 100 µM,87.7 µM,> 100 µM,23.4 µM,> 100 µM,–,> 100 µM,–,–,–,–,–,–,–,–,–,–
COc1cc(/C=C/C(=O)Oc2ccc(NC(C)=O)cc2)ccc1C(=O)O/C=C/c1ccccc1,> 100 µM,> 100 µM,> 100 µM,> 100 µM,> 100 µM,> 100 µM,–,> 100 µM,> 100 µM,> 100 µM,–,–,–,–,–,–,–,–,–,–
CC(=O)O[C@H]1CC[C@@]2(C)C(=CC[C@H]3[C@@H]4C/C(=C\c5ccc(N(C)C)cc5)[C@H](OC(C)=O)[C@@]4(C)CC[C@@H]32)C1,29.4 µM,26.7 µM,> 100 µM,27.3 µM,35.4 µM,41.2 µM,–,27.7 µM,–,29.7 µM,–,–,–,–,–,–,–,–,–,–
COc1ccc(C2=C3SC=c4ccccc4=C3ON=C2c2ccccc2)cc1,> 100 µM,> 100 µM,> 100 µM,> 100 µM,> 100 µM,> 100 µM,> 100 µM,> 100 µM,> 100 µM,> 100 µM,–,–,–,–,–,–,–,–,–,–
CCC(=O)O[C@H]1CC[C@H]2[C@@H]3CCC4=C/C(=N/OC(=O)c5cccc6cc7ccccc7nc56)CC[C@]4(C)[C@H]3CC[C@]12C,> 100 µM,> 100 µM,> 100 µM,> 100 µM,> 100 µM,> 100 µM,> 100 µM,–,> 100 µM,> 100 µM,–,–,–,–,–,–,–,–,–,–
O=C1NI(C#Cc2ccccc2)c2ccccc21,> 100 µM,> 100 µM,> 100 µM,> 100 µM,> 100 µM,> 100 µM,> 100 µM,> 100 µM,–,> 100 µM,–,–,–,–,–,–,–,–,–,–
Cc1c2cccc-2c(OCCO)cc2c3ccccc3n(C)c12,3.24 µM,25.6 µM,–,18.6 µM,> 100 µM,7.19 µM,25.2 µM,10.6 µM,14.6 µM,17 µM,–,–,–,–,–,–,–,–,–,–
C[C@H]1C(=O)O[C@@H]2CCN3CC=C(COC(=O)[C@](C)(O)[C@@]1(C)O)[C@H]23,> 100 µM,> 100 µM,> 100 µM,> 100 µM,> 100 µM,> 100 µM,> 100 µM,> 100 µM,> 100 µM,–,–,–,–,–,–,–,–,–,–,–
Nc1ccccc1N=Cc1cc2cc([N+](=O)[O-])ccc2s1,45.5 µM,35.6 µM,46.8 µM,46.6 µM,> 100 µM,32 µM,> 100 µM,48.8 µM,54.6 µM,81.7 µM,–,–,–,–,–,–,–,–,–,–
CCc1nc(N)nc(N)c1-c1ccc([N+](C)(C)C)cc1,> 100 µM,> 100 µM,> 100 µM,> 100 µM,> 100 µM,> 100 µM,> 100 µM,> 100 µM,> 100 µM,–,–,–,–,–,–,–,–,–,–,–
FC(F)(F)c1ccc2c(c1)nc(-c1ccc(Cl)cc1)n2CC1CCCN2CCCCC12 (stereo not drawn),24.4 µM,27.5 µM,–,31.2 µM,29.2 µM,29.2 µM,35.8 µM,22.9 µM,26.7 µM,29.8 µM,–,–,–,–,–,–,–,–,–,–
